This note sets out measurements from US20250353891A1 (MEDIMMUNE LIMITED, priority 2022, published 2025).

One may read the EC50 as the concentration needed to bring the measured effect to its halfway point.

Where two headings read alike, the source gives them in different places. Starred links: 1 amine or outer side, 2 acyl side, 3 side chain; linkers in the order of their positions; H or OH if unused. Non-standard residues stand in square brackets, D forms with d. Residues, ends and D or L forms follow the SMILES beside them. Groups on a side chain read outwards from the residue. *: point of attachment. C20 diacid = O=C(O)CCCCCCCCCCCCCCCCCCC(=O)*; C18 diacid = O=C(O)CCCCCCCCCCCCCCCCC(=O)*; Dip = N[C@H](C(=O)O)C(c1ccccc1)c1ccccc1; γGlu = O=C(O)[C@H](CCC(=O)[*:2])N[*:1]; Stearoyl = CCCCCCCCCCCCCCCCCC(=O)*; αMeF = C[C@](N)(Cc1ccccc1)C(=O)O; PEG2 = NCCOCCOCCC(=O)O; AEEA = NCCOCCOCC(=O)O; Aib = CC(C)(N)C(=O)O

Experiment [1] is described as follows: Mouse acute food intake study. The note with it: male C57Bl/6 mice, s.c., dose 10 nmol/kg, cumulative food intake at 24 hr vs vehicle. It is filed as in vivo. Here is the method:
Male C57Bl/6 mice obtained from Jackson Laboratories or Charles River at 8-9 weeks of age and were housed one per cage in BioDaq (Research Diets) cages. Mice were placed on Alpha Dri bedding, standard chow diet (Envigo, 2018) and given water pouches. Mice were allowed to acclimate for 1-2 weeks. Body weight was measured to ensure appropriate acclimation. After acclimation, mice were sham dosed a minimum of 2 times prior to initiation of food intake study. On study day, mice were placed in clean cage bottoms, weighed, and fasted for 6-8 hours. Mice were sorted into groups based on average 24-hour food intake data and body weight. 1-2 hours prior to lights out, mice were dosed subcutaneously with one vehicle or test peptide dissolved in an appropriate vehicle at 5 mL/kg. Mice were left undisturbed and allowed access to food and water for 48 hours. Automated food intake was monitored in the BioDaq system was monitored during this time. Discrete food intake data was exported into MS Excel from which cumulative food intake data was generated and analyzed.

Experiment [2] deals with human GLP-1 receptor (hGLP-1R) (Homo sapiens, UniProt P43220). Kind of experiment: cAMP production (HTRF) in CHO cells expressing hGLP-1R. Type of experiment: cell-based. Set-up: expressed in transfected cells. The note with it: for EC50: geometric mean, read-out: hGLP-1R EC50; for % Relative Potency Ratio: % GLP-1R activity relative to GLP-1 / % GlucR activity relative to glucagon. The method, boiled down:
(§1)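 Cells were resuspended in assay buffer at batch-optimized density, typically 1×10^5 cells/mL for hGLP-1R and 2×10^5 cells/mL for hGCGR. After 30 min incubation at room temperature with compound, cAMP was measured by two-step HTRF. EC50 values came from 4-parameter logistic fits of % Delta F.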
(In general: Changes in cAMP serve as a functional read-out for many G protein-coupled receptors.)

Experiment [3] has as its target human glucagon receptor (hGCGR) (Homo sapiens, UniProt P47871). Kind of experiment: cAMP production (HTRF) in CHO cells expressing hGCGR. Set-up: expressed in transfected cells. Type of experiment: cell-based. The note with it: geometric mean, read-out: hGluc-R EC50. Summed up:
as §1

Setting [4] is: Table 6, peptides modified at position 17, cAMP in CHO hGLP-1R cells.
The mark [5] stands for this setting: Table 6, peptides modified at position 17, cAMP in CHO hGCGR cells.

Chain of human GLP-1 receptor (hGLP-1R) (P43220 24-463): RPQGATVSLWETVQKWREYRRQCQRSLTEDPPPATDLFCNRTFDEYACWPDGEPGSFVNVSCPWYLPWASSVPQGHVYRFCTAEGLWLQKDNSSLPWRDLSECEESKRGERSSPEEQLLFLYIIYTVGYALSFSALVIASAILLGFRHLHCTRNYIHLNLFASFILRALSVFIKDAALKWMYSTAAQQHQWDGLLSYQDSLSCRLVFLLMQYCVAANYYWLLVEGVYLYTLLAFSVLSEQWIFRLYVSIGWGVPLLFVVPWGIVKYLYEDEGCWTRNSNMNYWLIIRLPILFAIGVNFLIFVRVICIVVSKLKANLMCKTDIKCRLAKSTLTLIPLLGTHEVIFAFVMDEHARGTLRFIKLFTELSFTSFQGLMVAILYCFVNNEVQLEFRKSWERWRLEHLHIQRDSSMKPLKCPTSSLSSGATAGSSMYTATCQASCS
Chain of human glucagon receptor (hGCGR) (P47871 26-477): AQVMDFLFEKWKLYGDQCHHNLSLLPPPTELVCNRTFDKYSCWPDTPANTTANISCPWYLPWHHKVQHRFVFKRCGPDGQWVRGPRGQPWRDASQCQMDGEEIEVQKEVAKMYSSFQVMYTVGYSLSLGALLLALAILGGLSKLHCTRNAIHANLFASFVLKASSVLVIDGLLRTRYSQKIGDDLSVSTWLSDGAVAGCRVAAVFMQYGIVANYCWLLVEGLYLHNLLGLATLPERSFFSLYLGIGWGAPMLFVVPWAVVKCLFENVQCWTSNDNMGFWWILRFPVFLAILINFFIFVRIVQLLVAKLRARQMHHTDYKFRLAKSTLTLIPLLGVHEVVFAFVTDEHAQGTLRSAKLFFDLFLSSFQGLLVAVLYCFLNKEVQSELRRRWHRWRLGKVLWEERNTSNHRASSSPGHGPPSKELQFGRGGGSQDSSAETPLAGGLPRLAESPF

With `CCCCCCCCCCCCCCCCCC(=O)N[C@@H](CCC(=O)N[C@@H](CCC(=O)NCCOCCOCCC(=O)NCCOCCOCCC(=O)NCCCC[C@H](NC(=O)[C@H](CO)NC(=O)[C@H](CC(=O)O)NC(=O)[C@H](CC(C)C)NC(=O)[C@@H](NC(=O)[C@H](CCCCN)NC(=O)[C@H](CO)NC(=O)[C@@H](NC(=O)[C@H](CC(=O)O)NC(=O)[C@H](CO)NC(=O)[C@@H](NC(=O)[C@](C)(Cc1ccccc1)NC(=O)[C@H](CO)NC(=O)CNC(=O)[C@H](CCC(N)=O)NC(=O)C(C)(C)NC(=O)[C@@H](N)Cc1c[nH]cn1)[C@@H](C)O)C(C)C)C(c1ccccc1)c1ccccc1)C(=O)N[C@@H](C)C(=O)N[C@@H](C)C(=O)N[C@@H](CCC(N)=O)C(=O)N[C@@H](CC(=O)O)C(=O)N[C@@](C)(Cc1ccccc1)C(=O)N[C@H](C(=O)N[C@@H](CCC(=O)O)C(=O)NC(C)(C)C(=O)N[C@@H](CC(C)C)C(=O)N[C@@H](C)C(=O)N[C@@H](CC(N)=O)C(=O)N[C@H](C(N)=O)[C@@H](C)O)C(C)C)C(=O)O)C(=O)O` [Peptide 45] (H-H[Aib]QGS[αMeF]TSDVSK[Dip]LDSK([PEG2-PEG2-γGlu-γGlu-Stearoyl])AAQD[αMeF]VE[Aib]LANT-NH2; N-terminus assumed), the “24 hr % Vehicle Food Intake” value in experiment [1] was found to be 76.2%. In addition, the EC50 in experiment [2] (setting [4]) was 0.00203 nM; in experiment [3] (setting [5]), 0.0149 nM. Also, in experiment [2] (Table 6), the “% Relative Potency Ratio” value turned out to be 14.6.
The like results for `CCCCCCCCCCCCCCCCCC(=O)N[C@@H](CCC(=O)N[C@@H](CCC(=O)NCCOCCOCCC(=O)NCCOCCOCCC(=O)NCCCC[C@H](NC(=O)[C@H](CO)NC(=O)[C@H](CC(=O)O)NC(=O)[C@H](CC(C)C)NC(=O)[C@@H](NC(=O)[C@H](CCCCN)NC(=O)[C@H](CO)NC(=O)[C@@H](NC(=O)[C@H](CC(=O)O)NC(=O)[C@H](CO)NC(=O)[C@@H](NC(=O)[C@](C)(Cc1ccccc1)NC(=O)[C@H](CO)NC(=O)CNC(=O)[C@H](CCC(N)=O)NC(=O)[C@H](CO)NC(=O)[C@@H](N)Cc1c[nH]cn1)[C@@H](C)O)C(C)C)C(c1ccccc1)c1ccccc1)C(=O)N[C@@H](C)C(=O)N[C@@H](C)C(=O)N[C@@H](CCC(N)=O)C(=O)N[C@@H](CC(=O)O)C(=O)N[C@@](C)(Cc1ccccc1)C(=O)N[C@H](C(=O)N[C@@H](CCC(=O)O)C(=O)NC(C)(C)C(=O)N[C@@H](CC(C)C)C(=O)N[C@@H](CCC(=O)O)C(=O)N[C@@H](C)C(=O)NCC(=O)NCC(N)=O)C(C)C)C(=O)O)C(=O)O` [Peptide 46] (H-HSQGS[αMeF]TSDVSK[Dip]LDSK([PEG2-PEG2-γGlu-γGlu-Stearoyl])AAQD[αMeF]VE[Aib]LEAGG-NH2; N-terminus assumed) were, in that order, 72.1%, 0.00339 nM, 0.00591 nM and 3.4.
In the case of `CC[C@H](C)[C@H](NC(=O)C(C)(C)NC(=O)[C@H](CCCCNC(=O)COCCOCCNC(=O)COCCOCCNC(=O)CC[C@H](NC(=O)CCCCCCCCCCCCCCCCC(=O)O)C(=O)O)NC(=O)[C@@H](NC(=O)[C@H](Cc1ccccc1)NC(=O)[C@H](CC(=O)O)NC(=O)[C@H](CCC(N)=O)NC(=O)[C@H](C)NC(=O)[C@H](C)NC(=O)[C@H](CCCNC(=N)N)NC(=O)[C@H](CO)NC(=O)[C@H](CC(=O)O)NC(=O)[C@H](CC(C)C)NC(=O)[C@](C)(Cc1ccccc1)NC(=O)[C@H](CCCCN)NC(=O)[C@H](CO)NC(=O)[C@@H](NC(=O)[C@H](CC(=O)O)NC(=O)[C@H](CO)NC(=O)[C@@H](NC(=O)[C@](C)(Cc1ccccc1)NC(=O)[C@H](CO)NC(=O)CNC(=O)[C@H](Cc1c[nH]cn1)NC(=O)C(C)(C)NC(=O)[C@@H](N)Cc1c[nH]cn1)[C@@H](C)O)C(C)C)C(C)C)C(=O)N[C@@H](C)C(=O)N[C@@H](CC(N)=O)C(=O)N[C@H](C(N)=O)[C@@H](C)O` [Peptide 366] (H-H[Aib]HGS[αMeF]TSDVSK[αMeF]LDSRAAQDFVK([AEEA-AEEA-γGlu-C18 diacid])[Aib]IANT-NH2; N-terminus assumed), the “24 hr % Vehicle Food Intake” value in experiment [1] is recorded as 83.5%. For the same compound, the “% Relative Potency Ratio” value in experiment [2] is on record as 1.7. Moreover, the EC50 came to 0.031 nM in experiment [2] (cAMP, CHO cells, 0.1% BSA) and 0.0274 nM in experiment [3] (cAMP, CHO cells, 0.1% BSA).
Consider `CC(C)C[C@H](NC(=O)[C@H](Cc1c[nH]c2ccccc12)NC(=O)[C@H](CCCNC(=N)N)NC(=O)[C@@H](NC(=O)[C@H](Cc1ccccc1)NC(=O)[C@H](CC(=O)O)NC(=O)[C@H](CCC(N)=O)NC(=O)[C@H](C)NC(=O)[C@H](CCCNC(=N)N)NC(=O)[C@H](CCCCNC(=O)COCCOCCNC(=O)COCCOCCNC(=O)CC[C@H](NC(=O)CCCCCCCCCCCCCCCCC(=O)O)C(=O)O)NC(=O)[C@H](CO)NC(=O)[C@H](CC(=O)O)NC(=O)[C@H](CC(C)C)NC(=O)[C@](C)(Cc1ccccc1)NC(=O)[C@H](CCCCN)NC(=O)[C@H](CO)NC(=O)[C@@H](NC(=O)[C@H](CC(=O)O)NC(=O)[C@H](CO)NC(=O)[C@@H](NC(=O)[C@H](Cc1ccccc1)NC(=O)[C@@H](NC(=O)CNC(=O)[C@H](CCC(N)=O)NC(=O)C(C)(C)NC(=O)[C@@H](N)Cc1c[nH]cn1)[C@@H](C)O)[C@@H](C)O)C(C)C)C(C)C)C(=O)N[C@@H](CCC(=O)O)C(=O)NC(C)(C)C(=O)N[C@H](C(=O)N[C@@H](CCC(=O)O)C(=O)O)[C@@H](C)O` [Peptide 171] (H-H[Aib]QGTFTSDVSK[αMeF]LDSK([AEEA-AEEA-γGlu-C18 diacid])RAQDFVRWLE[Aib]TE-OH; N-terminus assumed), for which the EC50 was determined as 0.107 nM in experiment [2] (setting [4]) and 0.376 nM in experiment [3] (setting [5]). For the same compound, the “% Relative Potency Ratio” value in experiment [2] (Table 6) is recorded as 7.0.
Regarding `CC[C@H](C)[C@H](NC(=O)C(C)(C)NC(=O)[C@H](CCC(N)=O)NC(=O)[C@@H](NC(=O)[C@H](Cc1ccccc1)NC(=O)[C@H](CC(=O)O)NC(=O)[C@H](CCCCNC(=O)COCCOCCNC(=O)COCCOCCNC(=O)CC[C@H](NC(=O)CC[C@H](NC(=O)CCCCCCCCCCCCCCCCCCC(=O)O)C(=O)O)C(=O)O)NC(=O)[C@H](C)NC(=O)C(C)(C)NC(=O)[C@H](CCCNC(=N)N)NC(=O)[C@H](CO)NC(=O)[C@H](CC(=O)O)NC(=O)[C@H](CC(C)C)NC(=O)[C@](C)(Cc1ccccc1)NC(=O)[C@H](CCCCN)NC(=O)[C@H](CO)NC(=O)[C@@H](NC(=O)[C@H](CC(=O)O)NC(=O)[C@H](CO)NC(=O)[C@@H](NC(=O)[C@](C)(Cc1ccccc1)NC(=O)[C@H](CO)NC(=O)CNC(=O)[C@H](Cc1c[nH]cn1)NC(=O)C(C)(C)NC(=O)[C@@H](N)Cc1c[nH]cn1)[C@@H](C)O)C(C)C)C(C)C)C(=O)N[C@@H](C)C(=O)N[C@@H](CC(N)=O)C(=O)N[C@H](C(N)=O)[C@@H](C)O` [Peptide 220] (H-H[Aib]HGS[αMeF]TSDVSK[αMeF]LDSR[Aib]AK([AEEA-AEEA-γGlu-γGlu-C20 diacid])DFVQ[Aib]IANT-NH2), the half-maximal effective concentration (EC50) was determined as 0.24 nM in experiment [2] (Table 7, peptides modified at position 20, cAMP in CHO hGLP-1R cells) and 0.405 nM in experiment [3] (Table 7, peptides modified at position 20, cAMP in CHO hGCGR cells). For the same compound, in experiment [2] (Table 7), the “% Relative Potency Ratio” value was found to be 3.3.
For the compound `CC[C@H](C)[C@H](NC(=O)[C@H](Cc1ccccc1)NC(=O)[C@H](CC(=O)O)NC(=O)[C@H](CCCNC(=N)N)NC(=O)[C@H](C)NC(=O)[C@H](CCCNC(=N)N)NC(=O)[C@H](CCCCNC(=O)COCCOCCNC(=O)COCCOCCNC(=O)CC[C@H](NC(=O)CCCCCCCCCCCCCCCCC(=O)O)C(=O)O)NC(=O)[C@@H](NC(=O)[C@H](CC(=O)O)NC(=O)[C@H](CC(C)C)NC(=O)[C@](C)(Cc1ccccc1)NC(=O)[C@H](CCCCN)NC(=O)[C@H](CO)NC(=O)[C@@H](NC(=O)[C@H](CC(=O)O)NC(=O)[C@H](CO)NC(=O)[C@@H](NC(=O)[C@H](Cc1ccccc1)NC(=O)[C@@H](NC(=O)CNC(=O)[C@H](CCC(N)=O)NC(=O)C(C)(C)NC(=O)[C@@H](N)Cc1c[nH]cn1)[C@@H](C)O)[C@@H](C)O)C(C)C)[C@@H](C)O)C(=O)N[C@@H](C)C(=O)N[C@@H](Cc1c[nH]c2ccccc12)C(=O)N[C@@H](CC(C)C)C(=O)N[C@@H](CC(C)C)C(=O)NC(C)(C)C(=O)N[C@@H](CCC(=O)O)C(=O)O` [Peptide 198] (H-H[Aib]QGTFTSDVSK[αMeF]LDTK([AEEA-AEEA-γGlu-C18 diacid])RARDFIAWLL[Aib]E-OH; N-terminus assumed), the EC50 worked out at 0.212 nM in experiment [2] (setting [4]) and 0.302 nM in experiment [3] (setting [5]). Moreover, the “% Relative Potency Ratio” value in experiment [2] (Table 6) is 2.8.
